Reference: patent publication US12570704B2, “Functionally modified maytansinoids and compositions and methods of use thereof” (University of Georgia Research Foundation, Inc., priority 2019, dated 2026)

Assays:
[1] = test system: H1299 cells; assay: MTT cell viability assay, 72 h, without RT; type: cell-based, human; conditions: Homo sapiens, NCI-H1299
Method: The viability of the H1299 cells after different treatments was measured by (4,5-dimethythiazon-2-yl)-2,5-diphenyl tetrazolium bromide (MTT) assay using an Infinite M200 microplate reader (BioTek's Synergy™ Mx, USA). Around 3×10^3 cells per well were seeded into a 96-well plate and cultured overnight until the cells fully adhered to the bottom of the plate. The cells were treated with different treatment groups, including free drugs (DM1 and DM1-NO), and drug loaded nanoparticles (DM1-NPs and DM1-NO-NPs) for 72 h. […] After that MTT reagent (in 20 μL PBS, 5 mg/mL) was added to each well. The cells were further incubated for 4 h at 37° C. The medium in each well was then removed and replaced by 100 μL DMSO. The plate was gently shake for 5 min (instrument setup) to dissolve the formazan crystals, and the absorbance at 570 nm was recorded by a microplate reader. Each experiment condition was run three times and the data were shown as the mean value plus a standard deviation (±SD).

[2] = test system: H1299 cells; assay: MTT cell viability assay, 72 h, in the presence of RT; type: cell-based, human; conditions: Homo sapiens, NCI-H1299, with RT
Method: FIGS. 7A-7E are plots showing the results of a cell cycle analysis, based on PI staining and assessed by flow cytometry. H1299 cells were incubated with PBS (7A), DM1 (7B), DM1-NO (7C), DM1-NPs (7D), or DM1-NO-NPs (20 nM, DM1 concentration) (7E) before analysis. […] FIG. 7G is a bar graphs showing Percentage of tubulin inhibition. Tubulin polymer was collected by centrifugation (35000×g for 1 h at 30° C.) and the amount of tubulin protein sediment was quantified by measuring protein concentration. ***, P<0.001. FIG. 7H is a line graph showing cell viability, tested with H1299 cells using 72-h MTT in the presence of RT. DM1, DM1-NO, and DM1-NO-NPs were studied.
The viability of the H1299 cells after different treatments was measured by (4,5-dimethythiazon-2-yl)-2,5-diphenyl tetrazolium bromide (MTT) assay using an Infinite M200 microplate reader (BioTek's Synergy™ Mx, USA). Around 3×10^3 cells per well were seeded into a 96-well plate and cultured overnight until the cells fully adhered to the bottom of the plate. The cells were treated with different treatment groups, including free drugs (DM1 and DM1-NO), and drug loaded nanoparticles (DM1-NPs and DM1-NO-NPs) for 72 h. […] The plate was gently shake for 5 min (instrument setup) to dissolve the formazan crystals, and the absorbance at 570 nm was recorded by a microplate reader. […]

[3] = test system: H1299 cells; assay: Superoxide dismutase (SOD) assay, cytosolic and mitochondrial; type: cell-based, human; conditions: +RT (6 Gy), 20 nM, compared to DM1+RT
Method: Around 3×10^4 cells per well were seeded into each well of a six-well plate and cultured overnight. The cells treated with free drug (DM1 and DM1-NO), and drug loaded nanoparticles (DM1-NPs and DM1-NO-NPs) were given the same concentration of drug (20 nM) and irradiated with 6 Gy of radiation. The plates were then incubated for 24 h. After the treatment, the cells were rinsed with PBS, and the cell pellets were collected using a cell scraper. Cells were homogenized using a sonicator in ice-cold 20 mM 4-(2-hydroxyethyl)-1-piperazineethanesulfonic acid (HEPS) buffer (pH 7.2, containing 1 mM of ethylene glycol-bis(β-aminoethyl ether)-N,N,N′,N′-tetraacetic acid, also known as EGTA; Millipore Sigma, USA), […] of mannitol, and 70 mM sucrose. Following homogenization, a pellet was formed by centrifugation at 15,000×g for 15 minutes at 4° C. The supernatant was collected, and an assay was immediately performed to assess cytosolic SOD levels by comparing to a standard curve. To measure mitochondrial SOD levels, the pellet was resuspended in ice-cold PBS, and the sample was measured accordingly.

[4] = test system: H1299 tumor bearing nude mice; assay: In vivo therapy study with X-ray irradiation; conditions: 260.8 nmol/kg i.v. + 6 Gy after 4 h; RT only 1826.4
Method: All animal experiments were performed according to protocols approved by the Institutional Animal Care and Use Committee (IACUC). Female athymic nude mice (Charles River Laboratories, USA) at 6 weeks old were housed in a protected unit specified for immunodeficient animals. To establish tumor models, H1299 cells (2×10^5 cells) were suspend in a matrigel solution and were subcutaneously injected into mice using a 28-gauge needle. All mice were randomized into six groups (n=5). When the average tumor volume reached 150 mm3, 200 μL free drug (DM1, DM1-NO) or drug loaded NPs (DM1-NPs, DM1-NO-NPs) in PBS at a dose of 260.8 nmol/kg were injected intravenously into the mice. Mice treated with 200 μL PBS were studied as a control. All the other mice received X-ray irradiation (6 Gy, 320 kV) to tumors 4 h after drug/nanoparticle injection, with the rest of the body shielded by lead. Tumor size and body weight were inspected every 3 days using a digital caliper, and the tumor volume was estimated as (length)×(width)2/2. After 24 days, the mice were euthanized, and the tumor was excised and dissected into slices for hematoxylin and eosin (H&E) staining.
In vivo therapy studies were performed with H1299 tumor bearing nude mice. When tumor size reached 150 mm3, DM1-NO-NPs (260.8 nmol/kg, equivalent to 0.2 mg DM1/kg) was intravenously (i.v.) injected into the animals (n=5). […]

## COc1cc2cc(c1Cl)N(C)C(=O)C[C@@H](OC(=O)[C@H](C)N(C)C(=O)CCSN=O)[C@]1(C)OC1[C@H](C)[C@@H]1C[C@@](O)(NC(=O)O1)[C@H](OC)/C=C\C=C(/C)C2 (some centres unmarked) [DM1-NO]
[1]
  IC50: 25.9 nM
[2]
  IC50: 14.9 nM
[3]
  increase of cytosol SOD activity: 70.08%
  increase of mitochondrial SOD activity: 24.36%
[4]
  average tumor size (volume) on Day 24: 759.33 mm3
